Measurements as given in paper PMC10698726 (Molecular Pharmaceutics, 2023).
pIC50: −log10 of the molar value. Read-outs that look alike come from different tables or passages of the source.

Experiments:
OCT2 = target: T1, OCT2 (Homo sapiens, UniProt O15244); test: Inhibition of model substrate uptake in OCT2-overexpressing HEK293 cells; conditions: OCT2, 20 μM inhibitor, 5 min; for inhibition at 5 min, 20 μM: human, OCT2-overexpressing HEK293 cells
T1 sequence (O15244 1-555): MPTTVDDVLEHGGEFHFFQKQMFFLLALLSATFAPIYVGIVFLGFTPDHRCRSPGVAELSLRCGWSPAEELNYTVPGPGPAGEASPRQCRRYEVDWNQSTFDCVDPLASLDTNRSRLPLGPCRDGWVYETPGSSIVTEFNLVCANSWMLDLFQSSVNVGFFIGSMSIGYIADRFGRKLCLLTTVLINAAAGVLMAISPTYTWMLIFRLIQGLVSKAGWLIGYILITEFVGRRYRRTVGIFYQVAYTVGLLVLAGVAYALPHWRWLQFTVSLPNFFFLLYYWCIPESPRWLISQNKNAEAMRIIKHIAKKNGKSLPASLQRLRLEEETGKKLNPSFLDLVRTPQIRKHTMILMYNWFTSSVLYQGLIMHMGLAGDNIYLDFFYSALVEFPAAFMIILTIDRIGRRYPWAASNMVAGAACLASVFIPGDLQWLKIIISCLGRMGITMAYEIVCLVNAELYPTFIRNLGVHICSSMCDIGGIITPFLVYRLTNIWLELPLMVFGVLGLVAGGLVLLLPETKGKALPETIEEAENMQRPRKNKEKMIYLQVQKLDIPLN
Description: (§1) All experiments were carried out in transporter-overexpressing HEK293 cells. OCT1-, OCT2-, NET-, DAT-, and SERT-overexpressing cells as well as the empty-vector transfected control cell line were generated as described earlier,[26]−[28] whereas the OCT3-overexpressing HEK293 cells were generous gift of from Drs. Koepsell and Gorbulev (University of Würzburg, Germany). All cells were cultivated in Dulbecco’s modified Eagle’s medium (DMEM) supplemented with 10% (v/v) FCS, penicillin (100 U/mL), and streptomycin (100 μg/mL) and kept in culture for no longer than 30 passages.
(§2) As for the transport experiments, 300,000 HEK293 cells were plated in poly-D-lysine-coated 24-well plates 2 days ahead of the experiment. On every plate, two wells of empty vector (EV)-transfected cells were used as a control to account for the passive influx of the model substrate, and two wells of transporter-overexpressing cells were used to determine the noninhibited uptake of the model substrate. Cells were initially washed once with 37 °C HBSS+ and then incubated with 2 μM model substrate (0.2 μM for MPP^+ uptake by MATs) with and without 20 μM inhibitor for 5 min. For concentration-dependent inhibition experiments, the cells were incubated with increasing inhibitor concentrations. The incubation was terminated by aspiration of the buffer before cells were washed twice with ice-cold HBSS+ and lysed in 80% acetonitrile. Cell lysates were transferred into a black 96-well plate for the fluorescence measurement of ASP^+ or used for sample preparation for LC–MS/MS analysis. […] Fluorescence quantification was performed in technical duplicates.
(§3) Transporter-mediated net uptake was calculated as the difference between uptake in transporter-overexpressing cells and that in the empty-vector-transfected control. […] Vmax is the maximum transport velocity, while Km is defined as the substance concentration that is required to reach half of vmax. The ratio of vmax over Km is termed intrinsic clearance Clint. For inhibition experiments, the transport activity was calculated by using the following equation [drawing 1]
(§4) SubstrateEV refers to the passive uptake of model substrates into the control cells and substratenoninhibited is the uptake in transporter-overexpressing cells without the presence of any inhibitor. The percent inhibition values are then calculated as described in the following [drawing 2]
(§5) For concentration inhibition experiments, the transporter activity was plotted against the log10 of inhibitor concentrations, and the data were fitted by the following equation to determine IC50 values [drawing 3]
(§6) Y refers to the transporter activity, whereas Ymax is the maximum and Ymin is the minimal transporter activity. X is the log10 of inhibitor concentrations, IC50 is the half-maximal inhibitory concentration, and hill slope is the slope factor.

OCT3 = target: T2, OCT3 (Homo sapiens, UniProt O75751); test: Inhibition of model substrate uptake in OCT3-overexpressing HEK293 cells; format: cell-based
T2 construct: expressed in transfected cells; host or cells: HEK293
T2 sequence (O75751 1-556): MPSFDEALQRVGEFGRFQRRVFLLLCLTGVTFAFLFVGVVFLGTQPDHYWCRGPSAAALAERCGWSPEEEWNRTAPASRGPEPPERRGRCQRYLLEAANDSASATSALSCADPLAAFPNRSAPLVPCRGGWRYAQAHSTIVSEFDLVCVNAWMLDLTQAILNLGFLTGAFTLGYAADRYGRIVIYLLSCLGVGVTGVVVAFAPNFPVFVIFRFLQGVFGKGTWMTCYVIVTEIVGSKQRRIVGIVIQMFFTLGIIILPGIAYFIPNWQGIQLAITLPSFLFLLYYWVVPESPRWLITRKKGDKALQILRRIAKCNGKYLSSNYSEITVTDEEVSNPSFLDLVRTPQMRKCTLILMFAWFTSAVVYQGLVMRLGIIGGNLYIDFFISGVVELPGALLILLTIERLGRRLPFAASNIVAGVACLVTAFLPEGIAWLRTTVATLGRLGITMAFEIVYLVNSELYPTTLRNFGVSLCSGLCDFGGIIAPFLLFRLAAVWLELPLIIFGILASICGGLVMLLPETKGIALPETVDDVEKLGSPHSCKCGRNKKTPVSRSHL
Description: as §1, §2, §3, §4, §5, §6

OCT1 = target: T3, OCT1 (Homo sapiens, UniProt O15245); test: Inhibition of model substrate uptake in OCT1-overexpressing HEK293 cells; format: cell-based; design: expressed in transfected cells; host or cells: HEK293; conditions: for inhibition at 5 min, 20 μM: OCT1-overexpressing HEK293 cells
T3 sequence (O15245 1-554): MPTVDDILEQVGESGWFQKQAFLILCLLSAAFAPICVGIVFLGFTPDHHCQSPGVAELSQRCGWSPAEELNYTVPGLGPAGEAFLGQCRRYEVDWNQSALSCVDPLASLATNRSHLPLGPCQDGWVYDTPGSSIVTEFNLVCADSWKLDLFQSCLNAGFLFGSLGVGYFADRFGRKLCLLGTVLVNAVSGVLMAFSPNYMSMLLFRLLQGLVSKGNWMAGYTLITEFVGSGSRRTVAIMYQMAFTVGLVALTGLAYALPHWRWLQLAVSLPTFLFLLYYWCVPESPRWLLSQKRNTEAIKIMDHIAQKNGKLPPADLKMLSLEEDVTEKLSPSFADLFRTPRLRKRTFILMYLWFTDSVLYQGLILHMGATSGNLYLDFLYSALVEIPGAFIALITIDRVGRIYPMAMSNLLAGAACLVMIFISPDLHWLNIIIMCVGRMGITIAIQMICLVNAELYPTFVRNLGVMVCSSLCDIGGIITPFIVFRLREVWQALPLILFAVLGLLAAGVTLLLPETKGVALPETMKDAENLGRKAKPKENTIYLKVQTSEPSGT
Description: Koepsell and Gorbulev (University of Würzburg, Germany).
Fluorescence quantification was performed in technical duplicates.

[1] = OCT3, 20 μM inhibitor, 2 μM (S)-zolmitriptan, 5 min
[2] = OCT3, 20 μM inhibitor, 2 μM (S,S)-ethambutol, 5 min
[3] = OCT3, 20 μM inhibitor, 2 μM ASP+, 5 min
[4] = OCT1, 20 μM inhibitor, 2 μM (S,S)-ethambutol, 5 min
[5] = OCT1, 20 μM inhibitor, 2 μM ASP+, 5 min, mean of three experiments
[6] = OCT1, 20 μM inhibitor, 2 μM sumatriptan, 5 min

| Compound | (S,S)-Ethambutol inhibition [%] (OCT2; 2 μM (S,S)-ethambutol) | ASP+ inhibition [%] (OCT2; 2 μM ASP+) | N-Ethyllidocaine inhibition [%] (OCT2; 2 μM N-ethyllidocaine) | (S)-Zolmitriptan inhibition [%] (OCT3; [1]) | (S,S)-Ethambutol inhibition [%] (OCT3; [2]) | ASP+ inhibition [%] (OCT3; [3]) | (S,S)-Ethambutol inhibition [%] (OCT1; [4]) | ASP+ inhibition [%] (OCT1; [5]) | Sumatriptan inhibition [%] (OCT1; [6]) | further results |
| --- | --- | --- | --- | --- | --- | --- | --- | --- | --- | --- |
| NC[C@@H](O)c1ccc(O)c(O)c1 [(S)-Norepinephrine] | 5.1 | 20.5 | 7.1 | -6.6 | 12.5 | -3.5 | 6.1 | -3.3 | 6.6 | – |
| O=C(OC1C[N+]2(CCCOc3ccccc3)CCC1CC2)C(O)(c1cccs1)c1cccs1 [(S)-Aclidinium] | 2.7 | 101.8 | 57.3 | 53.3 | 67.7 | 37.7 | 101.4 | 78.8 | 93.8 | – |
| CC(C)C[C@H](N(C)C)C1(c2ccc(Cl)cc2)CCC1 [(S)-Sibutramine] | – | 83.9 | 44.0 | – | – | -0.8 | – | 38.0 | – | (S)-Zolmitriptan inhibition [%] (OCT3): 24.1; (S,S)-Ethambutol inhibition [%] (OCT3): 23.8; Sumatriptan inhibition [%] (OCT1; human, pH 7.4): 72.0% |
| C=C[C@H]1C[N@@]2CC[C@H]1C[C@@H]2[C@@H](O)c1ccnc2ccc(OC)cc12 [Quinidine] | – | – | – | – | – | – | – | – | – | inhibition at 5 min, 20 μM (OCT2; pH 7.4, probe (S,S)-ethambutol (2 μM), (S,S)-Ethambutol inhibition [%], 2 μM (S,S)-ethambutol): 13.3%; inhibition at 5 min, 20 μM (OCT2; pH 7.4, probe ASP+ (2 μM), ASP+ inhibition [%], 2 μM ASP+): 93.4%; inhibition at 5 min, 20 μM (OCT2; pH 7.4, probe N-ethyllidocaine (2 μM), N-Ethyllidocaine inhibition [%], 2 μM N-ethyllidocaine): 50.8%; inhibition at 20 µM (OCT3; HEK293, 5 min, read-out: (S)-Zolmitriptan inhibition [%], OCT3, 20 μM inhibitor, 2 μM (S)-zolmitriptan, 5 min): 67%; inhibition at 20 µM (OCT3; HEK293, 5 min, read-out: (S,S)-Ethambutol inhibition [%], OCT3, 20 μM inhibitor, 2 μM (S,S)-ethambutol, 5 min): 85.9%; inhibition at 20 µM (OCT3; HEK293, OCT3, 20 μM inhibitor, 2 μM ASP+, 5 min, read-out: ASP+ inhibition [%]): 38.9%; pIC50 (OCT3; OCT3, Table S5, 2 μM ASP+ or ethambutol as model substrate, 5 min, read-out: IC50): 3.60; inhibition at 5 min, 20 μM (OCT1; human, pH 7.4, probe (S,S)-ethambutol (2 μM), (S,S)-Ethambutol inhibition [%], OCT1, 20 μM inhibitor, 2 μM (S,S)-ethambutol, 5 min): 61.7%; inhibition at 5 min, 20 μM (OCT1; human, pH 7.4, probe ASP+ (2 μM), OCT1, 20 μM inhibitor, 2 μM ASP+, 5 min, mean of three experiments, read-out: ASP+ inhibition [%]): 13.1%; inhibition at 5 min, 20 μM (OCT1; human, pH 7.4, probe sumatriptan (2 μM), OCT1, 20 μM inhibitor, 2 μM sumatriptan, 5 min, read-out: Sumatriptan inhibition [%]): 41.3% |
